The results in this text go back to ChEMBL document CHEMBL1134014, “Synthesis and biological evaluation of a sialyl Lewis X mimic with significantly improved E-selectin inhibition” (Bioorg Med Chem Lett, 2001).

In assay [1] the target is T1, E-selectin (Homo sapiens) (UniProt P16581).
T1 sequence (whole entry): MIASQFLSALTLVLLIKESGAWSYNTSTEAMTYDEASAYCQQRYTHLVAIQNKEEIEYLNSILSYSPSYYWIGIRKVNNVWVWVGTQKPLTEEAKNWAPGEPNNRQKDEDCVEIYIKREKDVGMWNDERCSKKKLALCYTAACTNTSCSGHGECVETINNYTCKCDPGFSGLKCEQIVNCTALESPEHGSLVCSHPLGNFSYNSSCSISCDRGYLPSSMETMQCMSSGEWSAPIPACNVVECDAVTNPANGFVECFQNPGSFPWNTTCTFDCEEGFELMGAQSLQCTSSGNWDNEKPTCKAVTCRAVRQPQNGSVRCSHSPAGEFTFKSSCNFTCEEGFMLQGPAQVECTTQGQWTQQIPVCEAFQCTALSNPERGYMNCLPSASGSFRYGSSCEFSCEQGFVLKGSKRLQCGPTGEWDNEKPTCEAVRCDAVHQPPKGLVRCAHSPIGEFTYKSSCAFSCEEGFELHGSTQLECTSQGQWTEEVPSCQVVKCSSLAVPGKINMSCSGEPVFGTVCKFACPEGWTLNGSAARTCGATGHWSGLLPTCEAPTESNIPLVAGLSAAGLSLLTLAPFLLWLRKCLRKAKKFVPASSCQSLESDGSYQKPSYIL
Description: Relative inhibitory concentration against Selectin E to that of sLex in a static cell free ligand binding assay.

In assay [2] the target is T2, E-selectin (Homo sapiens, UniProt P16581).
T2 sequence (P16581 whole entry): T1 sequence (whole entry)
Description: Inhibitory concentration against Selectin E in a static cell free ligand binding assay under equilibrium conditions.

The target in assay [3] is T1, E-selectin (Homo sapiens). Conditions: 50uM.
Description: Percent inhibition of Selectin E by the compound at a dose of 50uM
Assay [4] concerns the target T1, E-selectin (Homo sapiens). To be noted: 200uM.
Description: Percent inhibition of Selectin E by the compound at a dose of 200uM
Assay [5] deals with T1, E-selectin (Homo sapiens). To be noted: 10uM.
Description: Percent inhibition of Selectin E by the compound at a dose of 10uM

Consider `C[C@@H]1O[C@@H](O[C@@H]2CCCC[C@H]2O[C@@H]2O[C@@H](CO)[C@H](O)[C@H](OC(CC3CCCCC3)C(=O)O)[C@@H]2O)[C@@H](O)[C@@H](O)[C@@H]1O` (single isomer, unassigned), for which, in assay [1], the Relative IC50 amounted to 0.115.

As for `COC(=O)CCCCCCCCOC1O[C@@H](O)[C@@H](O[C@@H]2O[C@@H](CO)[C@H](O)[C@H](O[C@]3(C(=O)O)C[C@@H](O)[C@@H](NC(C)=O)[C@H]([C@@H](O)[C@H](O)CO)O3)[C@@H]2O)[C@H](O[C@@H]2O[C@@H](C)[C@@H](O)[C@H](O)[C@@H]2O)[C@@H]1NC(=O)c1ccc(OC)c(OC)c1` (some centres undefined), the Relative IC50 in assay [1] was 0.164.

Regarding `COC(=O)CCCCCCCCO[C@@H]1O[C@@H](CO)[C@@H](O[C@@H]2O[C@@H](CO)[C@H](O)[C@H](O[C@@H](CC3CCCCC3)C(=O)O)[C@@H]2O)[C@H](O[C@@H]2O[C@@H](C)[C@@H](O)[C@H](O)[C@@H]2O)[C@@H]1NC(=O)c1ccc(OC)c(OC)c1`, in assay [2], the IC50 – broadly, the point on the concentration scale where inhibition reaches its midpoint – is 1500 µM. Also, the inhibition (as a rule, the percentage by which the read-out fell short of the control) was found to be 93% in assay [3], 97% in assay [4] and 54% in assay [5]. In assay [1], this compound displayed a Relative IC50 of 0.03.

Compound `COC(=O)CCCCCCCCO[C@@H]1O[C@@H](CO)[C@@H](O[C@@H]2O[C@@H](CO)[C@H](O)[C@H](O[C@]3(C(=O)O)C[C@@H](O)[C@@H](NC(C)=O)[C@H]([C@@H](O)[C@H](O)CO)O3)[C@@H]2O)[C@H](O[C@@H]2O[C@@H](C)[C@@H](O)[C@H](O)[C@@H]2O)[C@@H]1NC(C)=O` showed a Relative IC50 in assay [1] of 1.

As to `C[C@@H]1O[C@@H](O[C@@H]2[C@H](CO)OCC[C@H]2O[C@@H]2O[C@@H](CO)[C@H](O)[C@H](OC(CC3CCCCC3)C(=O)O)[C@@H]2O)[C@@H](O)[C@@H](O)[C@@H]1O` (single isomer, unassigned), in assay [1], the Relative IC50 was found to be 0.031.
